Results published in PubChem BioAssay AID2060904 (Molecular Pharmacology Branch, DTP, NCI, 2025).

Tested on: 349418-098-R-PDC complex spheroid viability
Assay: Anticancer human tumor 349418-098-R-PDC patient-derived lung adenocarcinoma cell line growth inhibition [RAS]
Conditions: for IC50: curve of first compound; for viability, T/C: stronger effect = lower value
How it was run: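 Tumour cells grown as complex spheroids with HUVEC endothelial cells and mesenchymal stem cells, treated with RAS pathway inhibitor combinations. Each agent spans half-log steps from near clinical Cmax, or 10 microM where Cmax is unknown.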
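Also: spheroids exposed to compound for seven days before viability readout.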

For `CC(=O)OC12COC1CC(O)C1(C)C(=O)C(O)C3=C(C)C(OC(=O)C(O)C(NC(=O)OC(C)(C)C)c4ccccc4)CC(O)(C(OC(=O)c4ccccc4)C21)C3(C)C` (centres undefined) + C#Cc1c(F)ccc2cc(O)cc(-c3ncc4c(N5CC6CCC(C5)N6)nc(OCC56CCCN5CC(F)C6)nc4c3F)c12, the IC50 (second compound 0.0316 µM) was under 31.6 nM, the IC50 (second compound 0.1 µM) was under 31.6 nM and the IC50 (second compound 0.316 µM) was under 31.6 nM. The IC50 (second compound 1 µM) was under 31.6 nM, the IC50 (second compound 3.16 µM) was under 31.6 nM and the IC50 (second compound 10 µM) was under 31.6 nM. The viability, T/C (second compound 0.0316 µM, first compound 0.0316 µM) was 16.5%, the viability, T/C (second compound 0.0316 µM, first compound 0.1 µM) was 15.4% and the viability, T/C (second compound 0.0316 µM, first compound 0.316 µM) was 21.2%. The viability, T/C (second compound 0.0316 µM, first compound 1 µM) was 19.1%, the viability, T/C (second compound 0.0316 µM, first compound 3.16 µM) was 19.9% and the viability, T/C (second compound 0.0316 µM, first compound 10 µM) was 22.4%. For the same compound, the viability, T/C (second compound 0.1 µM, first compound 0.0316 µM) was 16.3%, the viability, T/C (second compound 0.1 µM, first compound 0.1 µM) was 23.3% and the viability, T/C (second compound 0.1 µM, first compound 0.316 µM) was 19.9%. The viability, T/C (second compound 0.1 µM, first compound 1 µM) was 18.4%, the viability, T/C (second compound 0.1 µM, first compound 3.16 µM) was 24.4% and the viability, T/C (second compound 0.1 µM, first compound 10 µM) was 27%. It also gave a viability, T/C (second compound 0.316 µM, first compound 0.0316 µM) of 16.1%, a viability, T/C (second compound 0.316 µM, first compound 0.1 µM) of 19.1% and a viability, T/C (second compound 0.316 µM, first compound 0.316 µM) of 26%. It also gave a viability, T/C (second compound 0.316 µM, first compound 1 µM) of 21.1%, a viability, T/C (second compound 0.316 µM, first compound 3.16 µM) of 23.3% and a viability, T/C (second compound 0.316 µM, first compound 10 µM) of 24.5%. For the same compound, the viability, T/C (second compound 1 µM, first compound 0.0316 µM) was 16.8%, the viability, T/C (second compound 1 µM, first compound 0.1 µM) was 16.6% and the viability, T/C (second compound 1 µM, first compound 0.316 µM) was 21.4%. The viability, T/C (second compound 1 µM, first compound 1 µM) was 18.2%, the viability, T/C (second compound 1 µM, first compound 3.16 µM) was 19.1% and the viability, T/C (second compound 1 µM, first compound 10 µM) was 24.4%. The viability, T/C (second compound 3.16 µM, first compound 0.0316 µM) was 13.2%, the viability, T/C (second compound 3.16 µM, first compound 0.1 µM) was 17.9% and the viability, T/C (second compound 3.16 µM, first compound 0.316 µM) was 17.5%. The viability, T/C (second compound 3.16 µM, first compound 1 µM) was 24.6%, the viability, T/C (second compound 3.16 µM, first compound 3.16 µM) was 31.2% and the viability, T/C (second compound 3.16 µM, first compound 10 µM) was 23.4%. For the same compound, the viability, T/C (second compound 10 µM, first compound 0.0316 µM) was 7.77%, the viability, T/C (second compound 10 µM, first compound 0.1 µM) was 5.42% and the viability, T/C (second compound 10 µM, first compound 0.316 µM) was 9.77%. For the same compound, the viability, T/C (second compound 10 µM, first compound 1 µM) was 6.32%, the viability, T/C (second compound 10 µM, first compound 3.16 µM) was 7.62% and the viability, T/C (second compound 10 µM, first compound 10 µM) was 5.03%.
`CCc1c2c(nc3ccc(O)cc13)-c1cc3c(c(=O)n1C2)COC(=O)[C@]3(O)CC` + C#Cc1c(F)ccc2cc(O)cc(-c3ncc4c(N5CC6CCC(C5)N6)nc(OCC56CCCN5CC(F)C6)nc4c3F)c12 was tested, and the IC50 (second compound 0.0316 µM) was 1.41 nM, the IC50 (second compound 0.1 µM) was 1.76 nM and the IC50 (second compound 0.316 µM) was 1.76 nM. It also gave an IC50 (second compound 1 µM) of 1.96 nM, an IC50 (second compound 3.16 µM) of 1.75 nM and an IC50 (second compound 10 µM) of 1.18 nM. The viability, T/C (second compound 0.0316 µM, first compound 0.000949 µM) was 58.9%, the viability, T/C (second compound 0.0316 µM, first compound 0.003 µM) was 33.1% and the viability, T/C (second compound 0.0316 µM, first compound 0.00949 µM) was 10.8%. The viability, T/C (second compound 0.0316 µM, first compound 0.03 µM) was 4.93%, the viability, T/C (second compound 0.0316 µM, first compound 0.0949 µM) was 3.89% and the viability, T/C (second compound 0.0316 µM, first compound 0.3 µM) was 2.53%. It also gave a viability, T/C (second compound 0.1 µM, first compound 0.000949 µM) of 74.7%, a viability, T/C (second compound 0.1 µM, first compound 0.003 µM) of 28.7% and a viability, T/C (second compound 0.1 µM, first compound 0.00949 µM) of 10.6%. It also gave a viability, T/C (second compound 0.1 µM, first compound 0.03 µM) of 5.19%, a viability, T/C (second compound 0.1 µM, first compound 0.0949 µM) of 4.46% and a viability, T/C (second compound 0.1 µM, first compound 0.3 µM) of 2.82%. The viability, T/C (second compound 0.316 µM, first compound 0.000949 µM) was 70.9%, the viability, T/C (second compound 0.316 µM, first compound 0.003 µM) was 32.1% and the viability, T/C (second compound 0.316 µM, first compound 0.00949 µM) was 8.77%. The viability, T/C (second compound 0.316 µM, first compound 0.03 µM) was 4.98%, the viability, T/C (second compound 0.316 µM, first compound 0.0949 µM) was 3.85% and the viability, T/C (second compound 0.316 µM, first compound 0.3 µM) was 2.45%. For the same compound, the viability, T/C (second compound 1 µM, first compound 0.000949 µM) was 81%, the viability, T/C (second compound 1 µM, first compound 0.003 µM) was 32% and the viability, T/C (second compound 1 µM, first compound 0.00949 µM) was 9.89%. It also gave a viability, T/C (second compound 1 µM, first compound 0.03 µM) of 6.27%, a viability, T/C (second compound 1 µM, first compound 0.0949 µM) of 4.67% and a viability, T/C (second compound 1 µM, first compound 0.3 µM) of 2.58%. The viability, T/C (second compound 3.16 µM, first compound 0.000949 µM) was 65.8%, the viability, T/C (second compound 3.16 µM, first compound 0.003 µM) was 36.2% and the viability, T/C (second compound 3.16 µM, first compound 0.00949 µM) was 10.1%. The viability, T/C (second compound 3.16 µM, first compound 0.03 µM) was 5.33%, the viability, T/C (second compound 3.16 µM, first compound 0.0949 µM) was 3.62% and the viability, T/C (second compound 3.16 µM, first compound 0.3 µM) was 2.21%. It also gave a viability, T/C (second compound 10 µM, first compound 0.000949 µM) of 57.9%, a viability, T/C (second compound 10 µM, first compound 0.003 µM) of 17.1% and a viability, T/C (second compound 10 µM, first compound 0.00949 µM) of 4.95%. It also gave a viability, T/C (second compound 10 µM, first compound 0.03 µM) of 2.94%, a viability, T/C (second compound 10 µM, first compound 0.0949 µM) of 1.84% and a viability, T/C (second compound 10 µM, first compound 0.3 µM) of 0.77%.
